Measured values reported in US4775691A, “4H-benzo[4,5]cyclohepta[1,2-b]thiophene derivatives” (Sandoz Ltd., priority 1985, dated 1988).
Where two headings read alike, the source gives them in different places.

How the values were obtained:
[1] = system: arthritis pain in the rat; test: Arthritis pain test in the rat (Test C), analgesic activity; format: in vivo, rat (OFA); conditions: for ED50: read-out: ED50, Test C
Protocol: For this test male rats (OFA) of 110-120 g are treated with 0.1 ml of a Myobacterium smegmatis suspension in paraffin oil (0.6 mg Mycobact./0.1 ml oil) injected i.c. into the tail root. Market arthritis in the hind-paws develops ca. 12 days after treatment. 30 mins. before administration of test-substance, control measurement is performed by flexing the foot joint of the right or left hind-paw using a Statham transducer until volcalisation occurs. […] Test substance is administered orally and the flexion procedure repeated 1, 3 and 5 hours subsequently. The pressure at which vocalisation occurs is noted, the value recorded for each rat at each interval being the average value of three successive measurements. Animals in which the vocalisation threshold is doubled with respect to the control measurement are considered to be protected. The ED50 estimated for each post-treatment time according to the Probit method is taken as the dosage at which 50% of animals are protected. Active agents of the invention are active in this test at dosages of from 3.2 to 100 mg/kg.

[2] = system: LPS (E. coli) induced fever in the rat; test: LPS (E. coli) induced fever test in the rat (Test B), anti-pyretic activity; format: in vivo, rat (Sprague-Dawley); conditions: for ED50: Escherichia coli, 2 h, read-out: ED50, Test B
Protocol: For this test male rats (Sprague-Dawley) of 130-180 g are fasted overnight. Body temperature is measured the following morning using a rectal probe connected to a telethermometer. […] Body temperature is measured 2 hours later and this value taken as the initial temperature. 6 hours after injection, the test animals receive an oral dosage of the test substance suspended in 0.5% tragacanth or tragacanth alone (control). Body temperature is again measured after a further 2 hours.

[3] = system: established adjuvant arthritis in the rat; test: Adjuvant arthritis test in the rat (Test A), anti-inflammatory activity; format: in vivo; conditions: for ED50: read-out: ED50, Test A
From the text: For this test, adjuvant arthritis is induced according to the method of Pearson and Wood, "Arthr.

[4] = fraction of commonly employed acetylsalicylic acid dosage

| Compound | indicated daily dosage relative to acetylsalicylic acid, analgesic therapy [1, 4] | ED50 ([1]; oral, rat, dosage at which 50% of animals are protected (vocalisation threshold doubled), post-treatment time not stated) | ED50 ([2]; oral, rat, dosage at which increase in rectal temperature is 50% of control group) | indicated daily dosage relative to acetylsalicylic acid, anti-pyretic therapy [2, 4] | ED50 ([3]; established adjuvant arthritis, rat) | indicated daily dosage relative to acetylsalicylic acid, anti-inflammatory therapy [3, 4] | ED50 ([1]; Rattus norvegicus, po) | ED50 ([2]; po) | ED50 ([3]; Rattus norvegicus) |
| --- | --- | --- | --- | --- | --- | --- | --- | --- | --- |
| COC1=Cc2ccccc2/C(=C\C(=O)O)c2cc(Cl)sc21 [Compound A, [2-chloro-10-methoxy-4H-benzo[4,5]-cyclohepta[1,2-b]thiophen-4-ylidene]acetic acid (E)-isomer] | 1/5 | 18 mg/kg | 14 ± 5 mg/kg | 1/10 | 10 ± 2 mg/kg | 1/24 |  |  |  |
| CC(=O)Oc1ccccc1C(=O)O [Compound B, acetyl-salicylic acid, reference compound] |  |  |  |  |  |  | 90 mg/kg | 161 mg/kg | 240 mg/kg |
